Key:
[1] = tested on: genotype 1a-H77 subgenomic replicon cell line; experiment: microbe, parasite or virus in culture; format: cell-based, HCV; conditions: Hepatitis C virus, read-out: EC50 1a
[2] = molecular target: T1, HCV polymerase 1B (Δ21 NS5B, BK) (Hepatitis C virus genotype 1b, UniProt P26663); experiment: biochemical
T1 construct: 20 to 50 nM Δ21 NS5B
In short: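 Δ21 NS5B (genotype 1b, BK […]) preincubated 15 min RT with inhibitor, 2 mM MnCl2, pH 7.4, 60–125 μM GTP; started with 20 μM CTP/ATP, 1 μM 3H-UTP, 5 nM template RNA, run 2–4 h RT. Spermine-precipitated RNA filter-captured, scintillation counted; IC50 from tight-binding (Morrison) fit.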

[3] = tested on: genotype 1b-Con1 subgenomic replicon cell line; experiment: microbe, parasite or virus in culture; format: cell-based, HCV; conditions: Hepatitis C virus, read-out: EC50 1b
[4] = molecular target: T2, HCV polymerase 1A (Δ21 NS5B, H77) (Hepatitis C virus genotype 1a, UniProt P27958); experiment: biochemical; conditions: IC50 1a
T2 construct: 20 to 50 nM Δ21 NS5B
T2 sequence (P27958 2421-2990, stated change not applied): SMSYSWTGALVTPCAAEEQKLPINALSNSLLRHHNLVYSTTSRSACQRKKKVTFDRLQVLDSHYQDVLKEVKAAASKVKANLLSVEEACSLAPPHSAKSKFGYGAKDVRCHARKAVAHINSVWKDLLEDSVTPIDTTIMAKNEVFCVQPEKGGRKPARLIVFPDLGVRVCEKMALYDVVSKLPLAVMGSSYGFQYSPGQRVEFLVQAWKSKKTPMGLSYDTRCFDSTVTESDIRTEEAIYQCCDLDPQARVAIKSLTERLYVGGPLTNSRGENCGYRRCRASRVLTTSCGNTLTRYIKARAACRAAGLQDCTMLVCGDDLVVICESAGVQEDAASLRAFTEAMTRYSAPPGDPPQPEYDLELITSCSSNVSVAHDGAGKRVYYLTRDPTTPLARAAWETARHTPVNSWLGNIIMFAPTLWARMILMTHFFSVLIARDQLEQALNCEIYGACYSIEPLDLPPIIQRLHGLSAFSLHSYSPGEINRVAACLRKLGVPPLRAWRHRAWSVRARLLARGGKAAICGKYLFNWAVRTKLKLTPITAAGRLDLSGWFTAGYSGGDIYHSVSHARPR
In short: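 Incorporation of 1 μM ^3H-UTP, with 20 μM each of CTP and ATP on 5 nM template RNA, ran 2–4 h at room temperature. Spermine-precipitated product was filtered and scintillation-counted. IC50 came from tight-binding non-linear regression of cpm against inhibitor concentration.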

T1 sequence (P26663 2420-2989, stated change not applied): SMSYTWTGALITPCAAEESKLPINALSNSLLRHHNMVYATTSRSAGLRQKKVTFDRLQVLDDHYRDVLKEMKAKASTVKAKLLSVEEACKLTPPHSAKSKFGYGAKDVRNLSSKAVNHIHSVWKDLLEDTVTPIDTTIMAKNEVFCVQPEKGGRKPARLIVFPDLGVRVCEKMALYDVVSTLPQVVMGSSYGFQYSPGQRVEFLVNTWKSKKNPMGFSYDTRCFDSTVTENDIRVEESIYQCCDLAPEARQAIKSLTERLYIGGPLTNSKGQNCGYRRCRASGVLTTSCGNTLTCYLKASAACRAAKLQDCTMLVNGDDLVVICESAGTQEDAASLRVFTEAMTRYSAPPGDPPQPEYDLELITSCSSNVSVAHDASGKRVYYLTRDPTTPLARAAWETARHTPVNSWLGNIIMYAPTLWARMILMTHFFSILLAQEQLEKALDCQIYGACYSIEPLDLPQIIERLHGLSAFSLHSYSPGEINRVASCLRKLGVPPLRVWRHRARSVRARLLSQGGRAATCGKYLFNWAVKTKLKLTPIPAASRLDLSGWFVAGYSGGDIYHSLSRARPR

| SMILES | EC50 [1] | IC50 [2] | EC50 [3] | IC50 [4] |
| --- | --- | --- | --- | --- |
| COc1c(C(=O)Nc2ccc(CC(=O)O)cc2)cc(N2CCC(=O)NC2=O)cc1C(C)(C)C [IA-L3-1.30, 2-(4-(3-tert-butyl-5-(2,4-dioxotetrahydropyrimidin-1(2H)-yl)-2-methoxybenzamido)phenyl)-acetic acid] | > 1000 nM | 100 to 1000 nM | > 1000 nM | > 1000 nM |
| COc1c(C(=O)Nc2ccc(NS(C)(=O)=O)cc2)cc(N2CCC(=O)NC2=O)cc1C(C)(C)C [IA-L3-1.51] | 100 to 1000 nM | 10 to 100 nM | 10 to 100 nM | 10 to 100 nM |
| COc1c(I)cc(-n2ccc(=O)[nH]c2=O)cc1C#Cc1ccc(NS(C)(=O)=O)cc1C [IB-L2-1.15, N-(4-((5-(2,4-dioxo-3,4-dihydropyrimidin-1(2H)-yl)-3-iodo-2-methoxyphenyl)ethynyl)-3-methylphenyl)methanesulfonamide] | > 1000 nM | 100 to 1000 nM | 100 to 1000 nM | 100 to 1000 nM |
| COc1c(-c2ccc3c(c2)CCC3=O)cc(-n2ccc(=O)[nH]c2=O)cc1C(C)(C)C [IB-L0-2.50, 1-(3-tert-butyl-4-methoxy-5-(1-oxo-2,3-dihydro-1H-inden-5-yl)phenyl)pyrimidine-2,4(1H,3H)-dione] | 100 to 1000 nM | 10 to 100 nM | 100 to 1000 nM | 10 to 100 nM |
| CC(C)(C)c1cc(N2CCC(=O)NC2=O)cc(C(=O)Nc2ccccc2S(N)(=O)=O)c1O [IA-L3-1.22, 3-tert-butyl-5-(2,4-dioxotetrahydropyrimidin-1(2H)-yl)-2-hydroxy-N-(2-sulfamoylphenyl)benzamide] | > 1000 nM | 10 to 100 nM | > 1000 nM | 100 to 1000 nM |
| COc1ccc(-c2cc(-n3ccc(=O)[nH]c3=O)cc(C(C)(C)C)c2OC)cc1/C=N/NS(C)(=O)=O [IB-L0-1.6, (E)-N′-((3′-tert-butyl-5′-(2,4-dioxo-3,4-dihydropyrimidin-1(2H)-yl)-2′,4-dimethoxybiphenyl-3-yl)methylene)methanesulfonohydrazide] | > 1000 nM | 100 to 1000 nM | 100 to 1000 nM | 100 to 1000 nM |
| COc1c(-c2ccc(/C(C)=N/NS(C)(=O)=O)cc2)cc(-n2ccc(=O)[nH]c2=O)cc1C(C)(C)C [IB-L0-1.5, (E)-N′-(1-(3′-tert-butyl-5′-(2,4-dioxo-3,4-dihydropyrimidin-1(2H)-yl)-2′-methoxybiphenyl-4-yl)ethylidene)methanesulfonohydrazide] | 10 to 100 nM | 10 to 100 nM | 10 to 100 nM | 10 to 100 nM |
| COc1c(/C=C\c2ccc(NS(C)(=O)=O)cc2)cc(N2CCC(=O)NC2=O)cc1C(C)(C)C [IA-L1-1.10, (Z)-N-(4-(3-tert-butyl-5-(2,4-dioxotetrahydropyrimidin-1(2H)-yl)-2-methoxystyryl)phenyl)methanesulfonamide] | 10 to 100 nM | 10 to 100 nM | 10 to 100 nM | 10 to 100 nM |
| COc1ccc(CN(c2ccc(NC(=O)c3cc(N4CCC(=O)NC4=O)cc(C(C)(C)C)c3OC)cc2)S(C)(=O)=O)cc1 [IA-L3-1.67, 3-tert-butyl-5-(2,4-dioxotetrahydropyrimidin-1(2H)-yl)-2-methoxy-N-(4-(N-(4-methoxy-benzyl)methylsulfonamido)phenyl)benzamide] | > 1000 nM | > 1000 nM | 100 to 1000 nM | > 1000 nM |
| CC(C)(C)c1cc(C#Cc2ccc(NS(C)(=O)=O)cc2)cc(N2CCC(=O)NC2=O)c1 [IA-L2-1.1, N-(4-((3-tert-butyl-5-(2,4-dioxotetrahydropyrimidin-1(2H)-yl)phenyl)ethynyl)phenyl)-methanesulfonamide] | 100 to 1000 nM | < 10 nM | 10 to 100 nM | 10 to 100 nM |
| CC(C)(C)c1cc(N2CCC(=O)NC2=O)cc(C(=O)Nc2ccc(OS(C)(=O)=O)cc2)c1O [IA-L3-1.19, 4-(3-tert-butyl-5-(2,4-dioxotetrahydropyrimidin-1(2H)-yl)-2-hydroxybenzamido)phenyl methanesulfonate] | > 1000 nM | 10 to 100 nM | > 1000 nM | 100 to 1000 nM |
| COC(=O)NN=C1CCc2cc(-c3cc(-n4ccc(=O)[nH]c4=O)cc(C(C)(C)C)c3OC)ccc21 [IB-L0-2.24, methyl 2-(5-(3-tert-butyl-5-(2,4-dioxo-3,4-dihydropyrimidin-1(2H)-yl)-2-methoxyphenyl)-2,3-dihydro-1H-inden-1-ylidene)hydrazinecarboxylate] | 10 to 100 nM | 10 to 100 nM | 10 to 100 nM | 10 to 100 nM |
| CC(C)(C)c1cc(N2CCC(=O)NC2=O)cc(C(=O)Nc2scc(CNS(C)(=O)=O)c2S(N)(=O)=O)c1O [IA-L3-1.89, 3-tert-butyl-5-(2,4-dioxotetrahydropyrimidin-1(2H)-yl)-2-hydroxy-N-(4-(methylsulfonamidomethyl)-3-sulfamoylthiophen-2-yl)benzamide] | 100 to 1000 nM | 10 to 100 nM | 10 to 100 nM | 10 to 100 nM |
| CN(Cc1csc(NC(=O)c2cc(N3CCC(=O)NC3=O)cc(C(C)(C)C)c2O)c1)S(C)(=O)=O [IA-L3-1.95, 3-tert-butyl-5-(2,4-dioxotetrahydropyrimidin-1(2H)-yl)-2-hydroxy-N-(4-((N-methylmethylsulfonamido)methyl)thiophen-2-yl)benzamide] | > 1000 nM | 10 to 100 nM | > 1000 nM | 100 to 1000 nM |
| COc1c(C(=O)Nc2ccc3c(c2)CC(=O)N3)cc(N2CCC(=O)NC2=O)cc1C(C)(C)C [IA-L3-2.2, 3-tert-butyl-5-(2,4-dioxotetrahydropyrimidin-1(2H)-yl)-2-methoxy-N-(2-oxoindolin-5-yl)benzamide] | > 1000 nM | 100 to 1000 nM | > 1000 nM | 100 to 1000 nM |
| COc1c(-c2ccc(/C=N/NS(C)(=O)=O)cc2)cc(-n2ccc(=O)[nH]c2=O)cc1C(C)(C)C [IB-L0-1.1, (E)-N′-((3′-tert-butyl-5′-(2,4-dioxo-3,4-dihydropyrimidin-1(2H)-yl)-2′-methoxybiphenyl-4-yl)methylene)methanesulfonohydrazide] | 10 to 100 nM | < 10 nM | 10 to 100 nM | < 10 nM |
| COc1c(C(=O)Nc2ccc(NS(=O)(=O)CC(C)C)cc2)cc(N2CCC(=O)NC2=O)cc1C(C)(C)C [IA-L3-1.52, 3-tert-butyl-5-(2,4-dioxotetrahydropyrimidin-1(2H)-yl)-2-methoxy-N-(4-(2-methylpropyl-sulfonamido)phenyl)benzamide] | > 1000 nM | 100 to 1000 nM | 100 to 1000 nM | 100 to 1000 nM |
| COc1c(C(=O)Nc2cc(CNS(C)(=O)=O)cs2)cc(N2CCC(=O)NC2=O)cc1C(C)(C)C [IA-L3-1.94, 3-tert-butyl-5-(2,4-dioxotetrahydropyrimidin-1(2H)-yl)-2-methoxy-N-(4-(methylsulfonamidomethyl)thiophen-2-yl)benzamide] | > 1000 nM | 100 to 1000 nM | 100 to 1000 nM | 100 to 1000 nM |
| COc1c(C#Cc2ccc(NS(C)(=O)=O)c3ccccc23)cc(-n2ccc(=O)[nH]c2=O)cc1C(C)(C)C [IB-L2-2.1, N-(4-((3-tert-butyl-5-(2,4-dioxo-3,4-dihydropyrimidin-1(2H)-yl)-2-methoxyphenyl)ethynyl)-naphthalen-1-yl)methanesulfonamide] | 100 to 1000 nM | 10 to 100 nM | 100 to 1000 nM | 10 to 100 nM |
